{"source": "paper PMC7760315", "about": "(Biomolecules, 2020)", "key": {"GlyRα1/GlyT2 [1]": {"target": "GlyRα1/GlyT2 (Homo sapiens, UniProt P23415)", "assay": "Two-electrode voltage clamp, oocytes co-expressing GlyRα1/GlyT2", "format": "cell-based", "text": "(§1) Human GlyT1b and GlyT2a WT cDNA were subcloned into the plasmid oocyte transcription vector (pOTV) and human GlyRα1, GlyRα3 and GlyRβ into pGEMHE. GlyR cDNA pGEMHE vectors were provided by Mary Collins at the University of Sydney (Sydney, Australia). Single point mutations were introduced into GlyRα1 using the Q5 site-directed mutagenesis kit (New England Biolabs (Genesearch), Arundel, Australia) with oligonucleotide primers (Merck, Sydney, Australia) containing the desired mutations. The amplified cDNA/pOTV or cDNA/pGEMHE product was then transformed in E. coli cells, and subsequently purified using the PureLink Quick Plasmid Miniprep Kit (Invitrogen by Life Technologies, Löhne, Germany), and sequenced by the Australian Genome Research Facility (Sydney, Australia). The purified plasmid DNA was linearised via the restriction enzyme, SpeI (New England Biolabs (Genesearch), Arundel, Australia) for GlyT1b and GlyT2a (henceforth referred to as GlyT1 and GlyT2 respectively) and NheI (New England Biolabs (Genesearch)) for GlyRα1, GlyRα3 and GlyRβ. Complementary RNAs were synthesised using the mMESAGE mMACHINE T7 kit (Ambion, Austin, TX, USA).\n(§2) All work involving the use of animals was performed in accordance with the Australian Code of Practice for the Care and Use of Animals for Scientific Purposes and approved by the University of Sydney Animal Ethics Committee (Approval numbers 2016/970 and 2020/1704). […] The oocytes were then stored in frog Ringer’s solution (96 mM NaCl, 2 mM KCl, 1 mM MgCl2, 1.8 mM CaCl2, 5 mM HEPES, pH 7.5) which was supplemented with 2.5 mM sodium pyruvate, 0.5 mM theophylline, 50 μg/mL gentamicin and […] tetracycline. The oocytes were stored at 18 °C for 3–5 days, until transporter and receptor expression were adequate for measurement using the two-electrode voltage clamp technique.\n(§3) GlyT1, GlyT2, GlyRα1, GlyRα3, GlyRα1β and GlyRα3β are electrogenic, allowing activation to be measured via the two-electrode voltage clamp technique. Oocytes were voltage clamped at −60 mV, and whole-cell currents generated by the substrate were recorded with a Geneclamp 500 amplifier (Axon Instruments, Foster City, CA, USA), digitised by a Powerlab 2/20 chart recorder (ADInstruments, Sydney, Australia). LabChart version 8 software (ADInstruments, Sydney, Australia) was used to visualise and process current traces. Recordings were performed in frog Ringer’s solution, except for low Na^+ experiments where Na^+ was replaced with choline. Oocytes were placed in an oval-shaped bath with a volume of 0.3 mL, with laminar flow around the oocyte at a rate of 12 mL min^−1 under gravity feed.\n(§4) Varying concentrations of substrate or agonist were applied to cells in ND96. […]"}, "GlyRα1/GlyT1 [2]": {"target": "T1, GlyRα1/GlyT1 (Homo sapiens, UniProt P23415)", "T1 construct": "expressed in transfected cells; host or cells: Xenopus laevis oocytes (cRNA co-injection)", "T1 sequence (P23415 29-457)": "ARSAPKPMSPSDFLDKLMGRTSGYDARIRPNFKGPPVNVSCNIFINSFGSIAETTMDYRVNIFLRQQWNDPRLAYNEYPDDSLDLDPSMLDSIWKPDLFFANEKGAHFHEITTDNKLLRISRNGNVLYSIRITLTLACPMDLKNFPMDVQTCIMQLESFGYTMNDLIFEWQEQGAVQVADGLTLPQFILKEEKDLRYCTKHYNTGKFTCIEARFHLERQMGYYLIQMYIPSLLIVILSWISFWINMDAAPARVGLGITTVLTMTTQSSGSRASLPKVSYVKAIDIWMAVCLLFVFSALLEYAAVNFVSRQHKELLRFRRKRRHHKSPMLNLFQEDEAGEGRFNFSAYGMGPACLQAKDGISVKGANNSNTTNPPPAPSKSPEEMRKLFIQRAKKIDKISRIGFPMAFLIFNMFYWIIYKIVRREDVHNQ", "assay": "Two-electrode voltage clamp, oocytes co-expressing GlyRα1/GlyT1", "format": "cell-based", "text": "as §1, §2, §3\n(§5) Varying concentrations of substrate or agonist were applied to cells in ND96.\n(§6) Flow of the solution was stopped until the current plateaued, by manually closing a three-way valve on one end of the bath such that the solution in the bath was static and is referred to henceforth as ‘stop-flow’."}, "GlyRα1": {"target": "T2, GlyRα1 (Homo sapiens, UniProt P23415)", "T2 construct": "expressed in transfected cells; host or cells: Xenopus laevis oocytes (cRNA injection)", "T2 sequence (P23415 29-457)": "T1 sequence (P23415 29-457)", "assay": "Two-electrode voltage clamp, Xenopus laevis oocytes expressing GlyRα1 alone", "format": "cell-based", "conditions": "non-transportable GlyR agonist; read-out: β-alanine EC50", "text": "as §1, §2, §3, §5, §6"}, "GlyRα1/GlyT2 [3]": {"test_system": "GlyRα1/GlyT2", "assay": "Two-electrode voltage clamp, oocytes co-expressing GlyRα1/GlyT2", "format": "cell-based, human", "conditions": "1 µM strychnine; for GlyT contribution to overall peak current (current in presence of strychnine as % of current without): fast-flow peak; for GlyT contribution to stopped flow current (current in presence of strychnine as % of current without): stop-flow", "text": "as §1, §2, §3, §4"}, "GlyRα1/GlyT1 [4]": {"test_system": "GlyRα1/GlyT1", "assay": "Two-electrode voltage clamp, oocytes co-expressing GlyRα1/GlyT1", "format": "cell-based, human", "conditions": "1 µM strychnine; for GlyT contribution to overall peak current (current in presence of strychnine as % of current without): fast-flow peak; for GlyT contribution to stopped flow current (current in presence of strychnine as % of current without): stop-flow", "text": "as §1, §2, §3, §5, §6"}, "GlyRα1/GlyT1 [5]": {"target": "T3, GlyRα1/GlyT1 (Homo sapiens, UniProt P48067)", "T3 construct": "expressed in transfected cells; host or cells: Xenopus laevis oocytes (cRNA co-injection)", "T3 sequence (P48067 1-652 isoform P48067-3)": "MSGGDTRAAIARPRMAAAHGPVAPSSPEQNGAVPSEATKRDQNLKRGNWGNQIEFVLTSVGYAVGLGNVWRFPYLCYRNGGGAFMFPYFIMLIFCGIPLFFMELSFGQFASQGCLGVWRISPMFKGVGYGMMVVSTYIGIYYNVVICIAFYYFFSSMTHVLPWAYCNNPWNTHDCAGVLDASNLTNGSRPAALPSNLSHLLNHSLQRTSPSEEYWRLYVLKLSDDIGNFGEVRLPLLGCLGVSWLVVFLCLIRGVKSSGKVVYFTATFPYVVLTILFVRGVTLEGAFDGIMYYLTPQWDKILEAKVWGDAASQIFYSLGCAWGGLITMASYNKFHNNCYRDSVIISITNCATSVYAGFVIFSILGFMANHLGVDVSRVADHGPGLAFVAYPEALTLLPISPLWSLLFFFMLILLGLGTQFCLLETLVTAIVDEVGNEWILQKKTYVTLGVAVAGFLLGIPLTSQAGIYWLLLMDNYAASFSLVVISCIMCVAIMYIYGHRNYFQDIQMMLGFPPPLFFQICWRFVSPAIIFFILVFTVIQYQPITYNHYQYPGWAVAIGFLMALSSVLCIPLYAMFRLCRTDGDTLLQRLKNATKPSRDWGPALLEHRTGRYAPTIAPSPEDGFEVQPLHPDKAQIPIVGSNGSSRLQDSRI", "assay": "Two-electrode voltage clamp, oocytes co-expressing GlyRα1/GlyT1", "format": "cell-based", "conditions": "1 μM ALX-5407; 1 mM Na+ buffer", "text": "as §1, §2, §3, §5, §6"}, "GlyT1": {"test_system": "GlyT1", "conditions": "cited from earlier work"}, "GlyRα1/GlyT2 [6]": {"target": "T4, GlyRα1/GlyT2 (Homo sapiens, UniProt Q9Y345)", "T4 construct": "expressed in transfected cells; host or cells: Xenopus laevis oocytes (cRNA co-injection)", "T4 sequence (Q9Y345 1-797)": "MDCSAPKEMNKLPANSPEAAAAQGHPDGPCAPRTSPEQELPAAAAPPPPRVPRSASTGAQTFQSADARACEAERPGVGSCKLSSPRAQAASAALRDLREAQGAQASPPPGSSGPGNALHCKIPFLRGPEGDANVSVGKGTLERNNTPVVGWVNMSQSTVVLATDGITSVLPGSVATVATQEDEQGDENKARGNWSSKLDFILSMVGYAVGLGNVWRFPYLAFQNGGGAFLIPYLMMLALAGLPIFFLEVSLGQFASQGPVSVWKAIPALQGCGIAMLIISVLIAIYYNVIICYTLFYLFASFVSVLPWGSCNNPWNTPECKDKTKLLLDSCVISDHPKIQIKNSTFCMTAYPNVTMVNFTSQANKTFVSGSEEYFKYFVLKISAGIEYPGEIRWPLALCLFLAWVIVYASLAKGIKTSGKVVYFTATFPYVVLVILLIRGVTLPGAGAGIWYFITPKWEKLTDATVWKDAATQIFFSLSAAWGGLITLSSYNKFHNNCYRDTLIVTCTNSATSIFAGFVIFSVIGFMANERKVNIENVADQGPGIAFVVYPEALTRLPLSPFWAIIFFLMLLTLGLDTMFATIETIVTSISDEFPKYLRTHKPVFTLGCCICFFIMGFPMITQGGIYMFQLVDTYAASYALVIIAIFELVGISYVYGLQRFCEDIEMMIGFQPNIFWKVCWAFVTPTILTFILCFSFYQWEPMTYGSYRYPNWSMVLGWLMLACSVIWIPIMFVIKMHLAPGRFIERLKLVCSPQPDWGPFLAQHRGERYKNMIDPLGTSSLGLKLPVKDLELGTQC", "assay": "Two-electrode voltage clamp, oocytes co-expressing GlyRα1/GlyT2", "format": "cell-based", "conditions": "1 µM inhibitor; fast-flow", "text": "as §1, §2, §3, §4"}, "GlyT2": {"test_system": "GlyT2", "conditions": "cited from earlier work"}}, "data": [{"smiles": "NCCC(=O)O", "note": "[β-alanine]", "values": [{"measurement": "EC50", "setting": "GlyRα1/GlyT2 [1]", "value": 27.4, "unit": "µM"}, {"measurement": "EC50", "setting": "GlyRα1/GlyT1 [2]; non-transportable GlyR agonist, read-out: β-alanine EC50", "value": 28, "unit": "µM"}, {"measurement": "EC50", "setting": "GlyRα1", "value": 28.3, "unit": "µM"}]}, {"smiles": "O=C1C[C@@H]2OCC=C3CN4CC[C@]56c7ccccc7N1[C@H]5[C@H]2[C@H]3C[C@H]46", "note": "[strychnine]", "values": [{"measurement": "GlyT contribution to overall peak current (current in presence of strychnine as % of current without)", "setting": "GlyRα1/GlyT2 [3]; 10 µM glycine", "value": "16.6 ± 3.7", "unit": "%"}, {"measurement": "GlyT contribution to stopped flow current (current in presence of strychnine as % of current without)", "setting": "GlyRα1/GlyT2 [3]; 10 µM glycine", "value": "16.2 ± 2.1", "unit": "%"}, {"measurement": "GlyT contribution to overall peak current (current in presence of strychnine as % of current without)", "setting": "GlyRα1/GlyT2 [3]; 30 µM glycine", "value": "1.7 ± 0.4", "unit": "%"}, {"measurement": "GlyT contribution to stopped flow current (current in presence of strychnine as % of current without)", "setting": "GlyRα1/GlyT2 [3]; 30 µM glycine", "value": "1.6 ± 0.4", "unit": "%"}, {"measurement": "GlyT contribution to overall peak current (current in presence of strychnine as % of current without)", "setting": "GlyRα1/GlyT1 [4]; 10 µM glycine", "value": "53.2 ± 6.9", "unit": "%"}, {"measurement": "GlyT contribution to stopped flow current (current in presence of strychnine as % of current without)", "setting": "GlyRα1/GlyT1 [4]; 10 µM glycine", "value": "61.5 ± 13.9", "unit": "%"}, {"measurement": "GlyT contribution to overall peak current (current in presence of strychnine as % of current without)", "setting": "GlyRα1/GlyT1 [4]; 30 µM glycine", "value": "14.4 ± 1.8", "unit": "%"}, {"measurement": "GlyT contribution to stopped flow current (current in presence of strychnine as % of current without)", "setting": "GlyRα1/GlyT1 [4]; 30 µM glycine", "value": "5.2 ± 1.3", "unit": "%"}]}, {"smiles": "CN(CC[C@@H](Oc1ccc(-c2ccccc2)cc1)c1ccc(F)cc1)CC(=O)O", "note": "[ALX-5407]", "values": [{"measurement": "stopped flow increase in current amplitude (reverse glycine transport / efflux)", "setting": "GlyRα1/GlyT1 [5]", "value": "prevents"}, {"measurement": "nH of glycine dose-response in the presence of GlyT inhibitor", "setting": "GlyRα1/GlyT1 [2]; 1 µM inhibitor, fast-flow", "value": "2.0 ± 0.2", "unit": "ns"}, {"measurement": "IC50", "setting": "GlyT1", "value": 0.003, "unit": "µM"}]}, {"smiles": "COc1cc(C(=O)NCC2(N(C)C)CCCC2)cc(OC)c1OCc1ccccc1", "note": "[ORG-25543]", "values": [{"measurement": "nH of glycine dose-response in the presence of GlyT inhibitor", "setting": "GlyRα1/GlyT2 [6]", "value": "2.6 ± 0.4", "unit": "ns"}, {"measurement": "IC50", "setting": "GlyT2", "value": 0.016, "unit": "µM"}]}]}
